Reference: patent US9675614B2, “PRMT5 inhibitors and uses thereof” (Epizyme, Inc., priority 2012, dated 2017)

Target: PRMT5/MEP50 (Homo sapiens (Human), UniProt O14744)
Experiment: PRMT5 Biochemical Assay (PRMT5/MEP50 enzyme assay on peptide substrate, 3H-SAM Flashplate)
Conditions: PRMT5/MEP50 biochemical assay; read-out: Biochemical IC50

Sequence of PRMT5/MEP50 (O14744 other isoform, or with tags, fused parts or gaps): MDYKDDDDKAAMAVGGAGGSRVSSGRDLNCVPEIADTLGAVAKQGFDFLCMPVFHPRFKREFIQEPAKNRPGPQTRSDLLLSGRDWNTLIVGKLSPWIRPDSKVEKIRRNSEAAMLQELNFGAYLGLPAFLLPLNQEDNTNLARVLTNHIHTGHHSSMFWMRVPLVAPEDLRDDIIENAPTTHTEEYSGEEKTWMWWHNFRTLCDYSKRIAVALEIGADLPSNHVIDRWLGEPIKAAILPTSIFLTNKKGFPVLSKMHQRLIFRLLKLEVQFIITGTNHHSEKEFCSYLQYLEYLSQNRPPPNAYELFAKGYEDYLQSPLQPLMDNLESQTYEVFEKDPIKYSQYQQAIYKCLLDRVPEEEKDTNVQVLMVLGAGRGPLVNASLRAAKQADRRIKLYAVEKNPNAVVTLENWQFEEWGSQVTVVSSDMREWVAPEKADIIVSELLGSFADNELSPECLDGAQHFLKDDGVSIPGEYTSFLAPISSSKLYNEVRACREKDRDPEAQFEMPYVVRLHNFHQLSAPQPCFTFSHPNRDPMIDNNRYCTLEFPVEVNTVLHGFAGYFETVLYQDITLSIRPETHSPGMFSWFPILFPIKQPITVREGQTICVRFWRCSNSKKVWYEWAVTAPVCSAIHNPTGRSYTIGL
Sequence of PRMT5/MEP50 (Q9BQA1 other isoform, or with tags, fused parts or gaps partner): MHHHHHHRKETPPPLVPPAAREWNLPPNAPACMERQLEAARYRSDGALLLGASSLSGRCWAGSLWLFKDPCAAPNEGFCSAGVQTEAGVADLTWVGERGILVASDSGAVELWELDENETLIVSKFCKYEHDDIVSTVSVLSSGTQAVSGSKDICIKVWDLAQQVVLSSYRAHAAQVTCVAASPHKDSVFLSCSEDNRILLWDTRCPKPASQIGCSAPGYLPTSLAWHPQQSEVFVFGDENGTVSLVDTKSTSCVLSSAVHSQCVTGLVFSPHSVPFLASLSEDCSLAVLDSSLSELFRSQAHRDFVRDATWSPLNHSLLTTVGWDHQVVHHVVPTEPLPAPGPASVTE

SMILES | IC50 [nM]
CN(CC(N)=O)Cc1cccc(C(=O)NCC(O)CN2CCc3ccccc3C2)c1 (centres unmarked) [Compound 195] | < 100
CC(C)N1CCC(Oc2ccc(C(=O)NCC(O)CN3CCc4ccccc4C3)cc2)C1 (centres unmarked) [Compound 196] | < 100
CC(=O)N1CCC(Oc2ccc(C(=O)NCC(O)CN3CCc4ccccc4C3)cc2)C1 (centres unmarked) [Compound 197] | < 100
CS(=O)(=O)N1CCC(Oc2ccc(C(=O)NCC(O)CN3CCc4ccccc4C3)cc2)C1 (centres unmarked) [Compound 198] | < 100
O=C(NCC(O)CN1CCc2ccccc2C1)c1ccc(OC2CCN(CC(F)(F)F)C2)cc1 (centres unmarked) [Compound 199] | < 100
O=C(NC[C@H](O)CN1CCc2ccccc2C1)c1ccnc(NC2CCNCC2)c1 [Compound 200] | < 100
O=C(NC[C@H](O)CN1CCc2ccccc2C1)c1ccnc(NC2CCNC2)c1 (some centres unmarked) [Compound 201] | < 100
CN1CCC(Oc2cc(C(=O)NC[C@H](O)CN3CCc4ccccc4C3)ccn2)CC1 [Compound 202] | < 100
O=C(NC[C@H](O)CN1CCc2ccccc2C1)c1ccnc(OC2CCN(CC(F)(F)F)CC2)c1 [Compound 203] | < 100
CS(=O)(=O)N1CCC(Oc2cc(C(=O)NC[C@H](O)CN3CCc4ccccc4C3)ccn2)CC1 [Compound 204] | < 100
CC(=O)N1CCC(Oc2cc(C(=O)NC[C@H](O)CN3CCc4ccccc4C3)ccn2)CC1 [Compound 205] | < 100
O=C(NC[C@H](O)CN1CCc2ccccc2C1)c1cc(NC2CCNC2)ncn1 (some centres unmarked) [Compound 209] | < 100
CC(=O)N1CCC(Nc2cc(C(=O)NC[C@H](O)CN3CCc4ccccc4C3)ncn2)C1 (some centres unmarked) [Compound 210] | < 100
O=C(NC[C@H](O)CN1CCc2ccccc2C1)c1cncc(NC2CCOC2)c1 (some centres unmarked) [Compound 211] | < 100
C[C@@H]1COCCC1Nc1cccc(C(=O)NC[C@H](O)CN2CCc3ccccc3C2)c1 (some centres unmarked) [Compound 212] | < 100
C[C@H]1COCCC1Nc1cccc(C(=O)NC[C@H](O)CN2CCc3ccccc3C2)c1 (some centres unmarked) [Compound 213] | < 100
CN(C)CCNc1cc(C(=O)NC[C@H](O)CN2CCc3ccccc3C2)ccn1 [Compound 214] | < 100
CC(=O)N1CCC(Nc2cccc(C(=O)NC[C@H](O)CN3CCc4ccccc4C3)c2)CC1 [Compound 215] | < 100
CS(=O)(=O)N1CCC(Nc2cccc(C(=O)NC[C@H](O)CN3CCc4ccccc4C3)c2)CC1 [Compound 216] | < 100
O=C(NC[C@H](O)CN1CCc2ccccc2C1)c1cccc(NC2CCN(CC(F)(F)F)CC2)c1 [Compound 217] | < 100
O=C(NC[C@@H](O)CN1CCc2ccccc2C1)c1ccc2ncccc2c1 [Compound 218] | < 100
Cc1ccc2cc(C(=O)NC[C@@H](O)CN3CCc4ccccc4C3)ccc2n1 [Compound 219, (R)—N-(3-(3,4-dihydroisoquinolin-2(1H)-yl)-2-hydroxypropyl)-2-methylquinoline-6-carboxamide] | < 100
O=C(NC[C@H](O)CN1CCc2ccccc2C1)c1ccc2ncccc2c1 [Compound 220] | < 100
Cc1ccc2cc(C(=O)NC[C@H](O)CN3CCc4ccccc4C3)ccc2n1 [Compound 221, (S)—N-(3-(3,4-dihydroisoquinolin-2(1H)-yl)-2-hydroxypropyl)-2-methylquinoline-6-carboxamide] | < 100
NC(=O)CNCCOc1cccc(C(=O)NCC(O)CN2CCc3ccccc3C2)c1 (centres unmarked) [Compound 222] | < 100
CN1CCC(Nc2cc(C(=O)NC[C@H](O)CN3CCc4ccccc4C3)ccn2)CC1 [Compound 223] | < 100
O=C(NC[C@H](O)CN1CCc2ccccc2C1)c1ccnc(NC2CCN(CC(F)(F)F)CC2)c1 [Compound 224] | < 100

SMILES | IC50 [nM]
CS(=O)(=O)N1CCC(Nc2cc(C(=O)NC[C@H](O)CN3CCc4ccccc4C3)ccn2)CC1 [Compound 225] | < 100
O=C(NC[C@H](O)CN1CCc2ccccc2C1)c1ccnc(NC2CCN(CC(F)(F)F)C2)c1 (some centres unmarked) [Compound 226] | < 100
CS(=O)(=O)N1CCC(Nc2cc(C(=O)NC[C@H](O)CN3CCc4ccccc4C3)ccn2)C1 (some centres unmarked) [Compound 227] | < 100
CC(=O)N1CCC(Nc2cc(C(=O)NC[C@H](O)CN3CCc4ccccc4C3)ccn2)C1 (some centres unmarked) [Compound 228] | < 100
O=C(NC[C@H](O)CN1CCc2ccccc2C1)c1ccnc(OC2CCNCC2)c1 [Compound 229] | < 100
O=C(NC[C@H](O)CN1CCc2ccccc2C1)c1cc(NC2CCOC2)ncn1 (some centres unmarked) [Compound 230] | < 100
Cc1c(NC2CCOCC2)ncnc1C(=O)NC[C@H](O)CN1CCc2ccccc2C1 [Compound 231] | < 100
CN(C[C@H](O)CN1CCc2ccccc2C1)C(=O)c1cc(NC2CCOCC2)ncn1 [Compound 232] | 101 to 1000
CNCCN(C)c1cc(C(=O)NC[C@H](O)CN2CCc3ccccc3C2)ccn1 [Compound 233] | < 100
CN(C)CCOc1cc(C(=O)NC[C@H](O)CN2CCc3ccccc3C2)ccn1 [Compound 234] | < 100
O=C(NC[C@H](O)CN1CCc2ccccc2C1)c1ccnc(NCC2CCNCC2)c1 [Compound 235] | < 100
O=C(NC[C@H](O)CN1CCc2ccccc2C1)c1ccnc(NCC2CCCNC2)c1 (some centres unmarked) [Compound 236] | < 100
O=C(NC[C@H](O)CN1CCc2ccccc2C1)c1ccnc(NCC2CCCCN2)c1 (some centres unmarked) [Compound 237] | < 100
O=C(NC[C@H](O)CN1CCc2ccccc2C1)c1ccnc(NCC2CNCCO2)c1 (some centres unmarked) [Compound 238] | < 100
CN1CCC(Nc2cccc(C(=O)NC[C@H](O)CN3CCc4ccccc4C3)c2)CC1 [Compound 239] | < 100
O=C(NC[C@H](O)CN1CCc2ccccc2C1)c1c[nH]c2ccccc12 [Compound 240] | 101 to 1000
O=C(NC[C@H](O)CN1CCc2ccccc2C1)c1cccc2[nH]cnc12 [Compound 241] | < 100
O=C(NC[C@H](O)CN1CCc2ccccc2C1)c1n[nH]c2ccccc12 [Compound 242] | < 100
O=C(NC[C@H](O)CN1CCc2ccccc2C1)c1ccc2c(c1)CCO2 [Compound 243] | < 100
O=C(NC[C@H](O)CN1CCc2ccccc2C1)c1ccc2c(c1)OCO2 [Compound 244] | < 100
O=C(NC[C@H](O)CN1CCc2ccccc2C1)c1cnc2ccccc2n1 [Compound 245] | < 100
Cn1cc(C(=O)NC[C@H](O)CN2CCc3ccccc3C2)c2ccccc21 [Compound 246] | < 100
O=C(NC[C@H](O)CN1CCc2ccccc2C1)c1ccc2c(c1)CCCC2 [Compound 247] | < 100
O=C(NC[C@H](O)CN1CCc2ccccc2C1)c1csc2ccccc12 [Compound 248] | < 100
O=C(NC[C@H](O)CN1CCc2ccccc2C1)c1cccc2c1OCCO2 [Compound 249] | < 100
COc1ccc2oc(C(=O)NC[C@H](O)CN3CCc4ccccc4C3)cc2c1 [Compound 250] | < 100
COc1ccc2cc(C(=O)NC[C@H](O)CN3CCc4ccccc4C3)ccc2c1 [Compound 251] | < 100

SMILES | IC50 [nM]
CC(=O)N(C)CCN1CCN(Cc2cccc(C(=O)NCC(O)CN3CCc4ccccc4C3)c2)CC1 (centres unmarked) [Compound 252] | < 100
CN1CCN(Cc2cccc(C(=O)NCC(O)CN3CCc4ccccc4C3)c2)CC1CO (centres unmarked) [Compound 253] | < 100
CN1CCC(Nc2cc(C(=O)NC[C@H](O)CN3CCc4ccccc4C3)ccn2)C1 (some centres unmarked) [Compound 255] | < 100
O=C(NC[C@H](O)CN1CCc2ccccc2C1)c1cc(OC2CCOCC2)ncn1 [Compound 256] | < 100
CS(=O)(=O)N1CCC(Nc2cc(C(=O)NC[C@H](O)CN3CCc4ccccc4C3)ncn2)C1 (some centres unmarked) [Compound 257] | < 100
O=C(NC[C@H](O)CN1CCc2ccccc2C1)c1cc(OC2CCNCC2)ncn1 [Compound 258] | < 100
O=C(NC[C@H](O)CN1CCc2ccccc2C1)c1cncc(NC2CCNC2)c1 (some centres unmarked) [Compound 259] | < 100
O=C(NC[C@H](O)CN1CCc2ccccc2C1)c1cncc(OC2CCNCC2)c1 [Compound 260] | < 100
CN(c1cc(C(=O)NC[C@H](O)CN2CCc3ccccc3C2)ncn1)C1CCOCC1 [Compound 261] | < 100
CN(CCNc1cc(C(=O)NC[C@H](O)CN2CCc3ccccc3C2)ccn1)S(C)(=O)=O [Compound 262] | < 100
CN(CCN(C)S(C)(=O)=O)c1cc(C(=O)NC[C@H](O)CN2CCc3ccccc3C2)ccn1 [Compound 263] | < 100
CN1CCCC(CNc2cc(C(=O)NC[C@H](O)CN3CCc4ccccc4C3)ccn2)C1 (some centres unmarked) [Compound 264] | < 100
CN1CCOC(CNc2cc(C(=O)NC[C@H](O)CN3CCc4ccccc4C3)ccn2)C1 (some centres unmarked) [Compound 265] | < 100
CC(=O)N1CC[C@H](Nc2cccc(C(=O)NC[C@H](O)CN3CCc4ccccc4C3)c2)C1 [Compound 266] | < 100
CS(=O)(=O)N1CC[C@@H](Nc2cccc(C(=O)NC[C@H](O)CN3CCc4ccccc4C3)c2)C1 [Compound 267] | < 100
CS(=O)(=O)N1CC[C@H](Nc2cccc(C(=O)NC[C@H](O)CN3CCc4ccccc4C3)c2)C1 [Compound 268] | < 100
O=C(NC[C@H](O)CN1CCc2ccccc2C1)c1cc2ccccc2[nH]1 [Compound 269] | < 100
O=C(NC[C@H](O)CN1CCc2ccccc2C1)c1ccc2[nH]ccc2c1 [Compound 270] | 1000 to 10000
O=C(NC[C@H](O)CN1CCc2ccccc2C1)c1cc2ccccc2o1 [Compound 271] | < 100
O=C(NC[C@H](O)CN1CCc2ccccc2C1)c1nccc2ccccc12 [Compound 272] | < 100
O=C(NC[C@H](O)CN1CCc2ccccc2C1)c1ccc2ncsc2c1 [Compound 273] | < 100
O=C(NC[C@H](O)CN1CCc2ccccc2C1)c1ccc2c(c1)OCCO2 [Compound 274] | < 100
Cc1cc2ncc(C(=O)NC[C@H](O)CN3CCc4ccccc4C3)c(C)n2n1 [Compound 275] | 101 to 1000
O=C(NC[C@H](O)CN1CCc2ccccc2C1)c1cc2cccc(Cl)c2[nH]1 [Compound 276] | < 100
CN(CCOc1cccc(C(=O)NCC(O)CN2CCc3ccccc3C2)c1)CC(N)=O (centres unmarked) [Compound 277] | < 100
CS(=O)(=O)N1CC(Nc2cc(C(=O)NC[C@H](O)CN3CCc4ccccc4C3)ccn2)C1 [Compound 278] | < 100
